This is an account of results in patent US3987052A, “6-Phenyl-4H-s-triazolo[4,3-a][1,4]benzodiazepines” (priority 1969, dated 1976).

What all share (assay type): in vivo
The subject of experiment [1] is mice. In words: Chimney test: ability of mice to back up and out of a vertical glass cylinder within 30 seconds. The note with it: Mus musculus, ip. The protocol:
(§1) Sedative effects of 8-chloro-1-methyl-6-phenyl-4H-s-triazolo-[4,3-a][1,4]benzodiazepine are shown by the following tests in mice:
Chimney test: [Med. Exp. 4, 145 (1961)]: The effective intraperitoneal dosage for 50% of mice (ED50) is 0.09 mg./kg. The test determines the ability of mice to back up and out of a vertical glass cylinder within 30 seconds. At the effective dosage, 50% of the mice failed doing it.

Experiment [2] deals with mice. In words: Dish test: mice remaining in Petri dish for more than 3 minutes. To be noted: Mus musculus. The protocol:
as §1
Dish test: Mice in Petri dishes (10 cm. diameter, 5 cm. high, partially embedded in wood shavings), climb out in a very short time, when not treated. Mice remaining in the dish for more than 3 minutes indicates tranquilization. ED50 equals the dose of test compound at which 50% of the mice remain in the dish.

For experiment [3], the system named is mice. In words: Pedestal test: mice staying on the pedestal for more than 1 minute. The note with it: Mus musculus. The protocol:
as §1
Pedestal test: The untreated mouse leaves the pedestal in less than a minute to climb back to the floor of the standard mouse box. Tranquilized mice will stay on the pedestal for more than 1 minute. The ED50 (intraperitoneal administration) is 0.20 mg./kg.; the ED50 (oral administration) is 0.9 mg.kg.

In experiment [4] the test system is mice. In words: Nicotine antagonism test (nicotine salicylate 2 mg./kg.). To be noted: Mus musculus. The protocol:
Nicotine antagonism test: Mice in a group of 6 are injected with the test compound (8-chloro-1-methyl-6-phenyl-4H-s-triazolo[4,3-a][1,4]benzodiazepine). Thirty minutes later the mice including control (untreated) mice are injected with nicotine salicylate (2 mg./kg.). The control mice show overstimulation, i.e., (1) running convulsions followed by (2) tonic extensor fits; followed by (3) death.
Ni =]nicotine antagonism (3) test

The subject of experiment [5] is mice. Put plainly: Antagonism to strychnine (as sulfate), 3 mg./kg. intraperitoneally. The note with it: Mus musculus, po, 4 h, read-out: effective dosage ED50, antagonism to strychnine. The protocol:
Antagonism to strychnine (as sulfate): The effective dosage ED50 of 8-chloro-1-methyl-6-phenyl-4H-s-triazolo[4,3-a][1,4]benzodiazepine is 1 mg./kg. orally in mice. The test consists in orally administering into groups of 6 mice the test compound, 8-chloro-1-methyl-6-phenyl-4H-s-triazolo[4,3-a][1,4]benzodiazepine, and 30 minutes later 3 mg./kg. strychnine sulfate intraperitoneally. The survivors after 4 hours reflect the activity of the compound as a muscle relaxant and antispasmodic. A dosage of 3 mg./kg. of strychnine sulfate is routinely fatal to all the control mice.

[6] abbreviates: intraperitoneal injection, table 1, read-out: ED50 Ch (chimney test).
Where [7] appears, read: ip, intraperitoneal injection, table 1, read-out: ED50 D (dish test).
The mark [8] stands for this setting: ip, intraperitoneal injection, table 1, read-out: ED50 P (pedestal test).
Setting [9] is: ip, intraperitoneal injection, table 1, read-out: ED50 Ni (nicotine antagonism (3) test).

Usually ED50 stands for the midpoint of the dose-response relation. With `Cc1nnc2n1-c1ccc(Cl)cc1C(c1ccccc1)=NC2` [8-chloro-1-methyl-6-phenyl-4H-s-triazolo[4,3-a][1,4]benzodiazepine], the ED50 amounted to 0.09 mg/kg in experiment [1] (intraperitoneal, mice, read-out: effective intraperitoneal dosage for 50% of mice (ED50), chimney test); 0.15 mg/kg in experiment [2] (ip, intraperitoneal administration, mice, read-out: ED50, dish test); 0.045 mg/kg in experiment [2] (oral, mice, read-out: oral ED50, dish test); 0.2 mg/kg in experiment [3] (ip, intraperitoneal administration, mice, read-out: ED50, pedestal test); 0.9 mg/kg in experiment [3] (oral administration, mice, read-out: ED50, pedestal test); 0.1 mg/kg in experiment [4] (ip, intraperitoneal, 30 minutes before nicotine salicylate 2 mg./kg., mice, read-out: intraperitoneal dosage that protected 50% of the mice against (2) tonic extensor fits and (3) death (ED50)). For the same compound, the ED50 in experiment [4] (oral, before nicotine salicylate 2 mg./kg., mice, read-out: oral ED50, nicotine antagonism) came to 0.04 mg/kg; in experiment [5] it was 1 mg/kg.

Turning to `Cc1nnc2n1-c1ccc(Cl)cc1C(c1ccccc1Cl)=NC2` [8-Chloro-1-methyl-6-(o-chlorophenyl)-4H-s-triazolo[4,3-a][1,4]benzodiazepin], the ED50 in experiment [1] (setting [6]) was 0.05 mg/kg; in experiment [2] (setting [7]) it was 0.028 mg/kg; in experiment [3] (setting [8]), 0.045 mg/kg; in experiment [4] (setting [9]) it was 0.008 mg/kg.

As for `Cc1nnc2n1-c1ccc(Cl)cc1C(c1ccccc1F)=NC2` [8-chloro-1-methyl-6-(o-fluorophenyl)-4H-s-triazolo[4,3-a][1,4]benzodiazepine], the ED50 in experiment [1] (setting [6]) was found to be 0.056 mg/kg; in experiment [2] (setting [7]) it was 0.016 mg/kg; in experiment [3] (setting [8]), 0.028 mg/kg; in experiment [4] (setting [9]), 0.009 mg/kg.

Take `Cc1nnc2n1-c1ccc(C(F)(F)F)cc1C(c1ccccc1)=NC2` [1-methyl-6-phenyl-8-(trifluoromethyl)-4H-s-triazolo[4,3-a][1,4]benzodiazepine]: the ED50 in experiment [1] (setting [6]) was found to be 0.16 mg/kg; in experiment [2] (setting [7]), 0.16 mg/kg; in experiment [3] (setting [8]) it was 0.22 mg/kg; in experiment [4] (setting [9]), 0.08 mg/kg.

Take `Clc1ccc2c(c1)C(c1ccccc1)=NCc1nncn1-2` [8-chloro-6-phenyl-4H-s-triazolo[4,3-a][1,4]benzodiazepine]: the median effective dose (ED50) in experiment [1] (setting [6]) turned out to be 0.25 mg/kg; in experiment [2] (setting [7]) it was 0.4 mg/kg; in experiment [3] (setting [8]), 0.7 mg/kg; in experiment [4] (setting [9]), 0.08 mg/kg.

Turning to `Cc1nnc2n1-c1ccc(Cl)cc1C(c1c(F)cccc1F)=NC2` [8-chloro-1-methyl-6-(2,6-difluorophenyl)-4H-s-triazolo[4,3-a][1,4]benzodiazepine], the ED50 was 0.009 mg/kg in experiment [1] (setting [6]), 0.016 mg/kg in experiment [2] (setting [7]), 0.02 mg/kg in experiment [3] (setting [8]) and 0.018 mg/kg in experiment [4] (setting [9]).

As to `CCc1nnc2n1-c1ccc(Cl)cc1C(c1ccccc1)=NC2` [8-Chloro-1-ethyl-6-phenyl-4H-s-triazolo[4,3-a]-[1,4]benzodiazepine], the ED50 amounted to 0.8 mg/kg in experiment [1] (setting [6]), 0.9 mg/kg in experiment [2] (setting [7]), 0.9 mg/kg in experiment [3] (setting [8]) and 0.2 mg/kg in experiment [4] (setting [9]).
